What was measured:
melanoma = conditions: cited from earlier work; for side effects: compared with bryostatin 1, melanoma treatment; for effectiveness in treating melanoma: compared with bryostatin 1
B. neritina = experiment: gentamicin treatment of B. neritina larvae, bryostatin activity and growth of colonies; design: species or system Bugula neritina; conditions: about 100 micrograms per milliliter for about seven days post-settlement
Protocol: (§1) B. neritina larvae were treated with gentamicin at about 100 micrograms per milliliter for about seven days post-settlement, grown out for 3 months to re-establish their commensal bacterial flora, and then assayed for E. sertula levels and KSa levels by specific PCR and bryostatin activity by phorbol dibutyrate displacement (PdBu) assay (FIG. 7). The standard method for detecting bryostatins is the PdBu displacement assay (DeVries et al., 1988). Rat brain liposomes are incubated with tritiated PdBu, which binds to PKC in the liposomes. The liposomes are collected by filtration and counted in a scintillation counter. If an extract is added that contains a compound that can compete with phorbol for binding, less tritiated PdBu is bound. The assay has a subnanomolar detection limit for pure bryostatin 1 and is suitable for milligram quantities of sample. In B. neritina, the only compounds with PdBu activity are bryostatins, and PdBu activity is a good measure of total bryostatin activity.

E. sertula = experiment: gentamicin treatment of B. neritina larvae, E. sertula and KSa levels by specific PCR; design: species or system Candidatus Endobugula sertula; conditions: about 100 micrograms per milliliter for about seven days post-settlement, grown out 3 months, vs untreated controls
Protocol: as §1

lymphocytes [1] = conditions: in vitro; cited from earlier work
lymphocytes [2] = conditions: cancer patients, intravenous administration; cited from earlier work
[3] = test system: human breast cancer cells; conditions: cited from earlier work

Molecule: bryostatin 8
- side effects (melanoma): milder side effects
- effectiveness in treating melanoma (melanoma): as effective as bryostatin 1

Molecule: COC(=O)/C=C1/C[C@H]2C[C@]3(O)O[C@H](C[C@@H](O)CC(=O)O[C@@H]([C@@H](C)O)C[C@H]4C/C(=C\C(=O)OC)[C@H](OC(C)=O)[C@@](O)(O4)C(C)(C)/C=C/[C@@H](C1)O2)C[C@H](OC(=O)CC(C)C)C3(C)C [bryostatin 5]
- side effects (melanoma): milder side effects
- effectiveness in treating melanoma (melanoma): as effective as bryostatin 1

Molecule: gentamicin
- bryozoan growth rates, treated versus untreated colonies (B. neritina): the same
- bryostatin activity of treated colonies (PdBu assay) (B. neritina; grown out 3 months, vs untreated controls): reduced
- KSa levels (E. sertula; specific PCR): reduced dramatically
- E. sertula population (E. sertula; FIG. 7): reduced dramatically

Molecule: CCC/C=C/C=C/C(=O)O[C@H]1/C(=C/C(=O)OC)C[C@H]2C[C@H]([C@@H](C)O)OC(=O)C[C@H](O)C[C@@H]3C[C@H](OC(C)=O)C(C)(C)[C@](O)(C[C@@H]4C/C(=C/C(=O)OC)C[C@H](/C=C/C(C)(C)[C@]1(O)O2)O4)O3 [bryostatin 1]
- effect on lymphocytes in combination with IL-2 (lymphocytes [1]): enhances proliferation and IL-2 receptor expression on lymphocytes
- effect on IL-2-induced lymphocyte activity in patients (lymphocytes [2]): increased the potential of IL-2 to induce proliferation of LAK activity in lymphocytes
- sensitization to the cytotoxic effects of gemcitabine [3]: sensitized human breast cancer cells to the cytotoxic effects of gemcitabine

— patent publication US20020081665A1, “Bryostatins, bryopyrans and polyketides: compositions and methods” (priority 1999, published 2002)
